One assay has as its target T1, PTHR1 (hPTHR1) (Homo sapiens, UniProt Q03431).
T1 construct: expressed in transfected cells; host or cells: GP-2.3 (HEK-293 stably transfected with hPTHR1 and GloSensor)
T1 sequence (Q03431 27-593): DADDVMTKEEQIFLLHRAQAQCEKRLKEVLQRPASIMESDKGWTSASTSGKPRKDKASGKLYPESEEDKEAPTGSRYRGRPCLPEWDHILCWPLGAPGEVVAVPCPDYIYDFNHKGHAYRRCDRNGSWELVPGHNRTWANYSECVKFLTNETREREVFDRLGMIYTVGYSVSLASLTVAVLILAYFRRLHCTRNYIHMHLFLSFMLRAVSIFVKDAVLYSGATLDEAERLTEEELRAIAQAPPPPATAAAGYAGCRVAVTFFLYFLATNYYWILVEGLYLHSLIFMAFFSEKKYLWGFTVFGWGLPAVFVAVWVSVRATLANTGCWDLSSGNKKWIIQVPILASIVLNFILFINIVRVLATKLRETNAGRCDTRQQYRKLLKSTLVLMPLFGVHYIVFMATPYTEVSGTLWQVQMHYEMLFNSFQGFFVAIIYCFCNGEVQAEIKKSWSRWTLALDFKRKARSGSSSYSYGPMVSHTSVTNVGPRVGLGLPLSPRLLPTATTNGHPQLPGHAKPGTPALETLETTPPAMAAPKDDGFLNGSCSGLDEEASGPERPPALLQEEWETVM
The experiment in a line: Radioligand competition binding in GP-2.3 cells. The settings on record: for IC50: means of four experiments. On the procedure:
Intact cell binding reactions were performed in 96-well plates, and, following incubation, the cells were lysed with 1N NaOH, and the lysate was counted for gamma radiation. For membrane dissociation assays, reactions were assembled in 15 cc tubes, and, at times following membrane addition (t=0), aliquots were withdrawn and filtered through a well of a vacuum filtration 96-well plate, rinsed, and, after washing, the filters were removed and counted for gamma irradiation. […] Curves were fit to the data using a four-parameter sigmoidal dose-response equation.
Pharmacological properties of the ligands were assessed in cells expressing the PTHR1 and the GloSensor™ cAMP reporter. The assays used GP-2.3 cells, derived from HEK293 cells by stable transfection with the hPTHR1 and GloSensor™, as well as SGS-72 cells, which are derived from the human osteosarcoma cell line, Saos-2, in which is endogenously expressed the hPTHR1, by stable transfection with GloSensor™. Binding of representative polypeptides to the PTHR1 was assessed in GP-2.3 cells by radioligand competition methods (FIGS. 1A and 1B, Table 3).
The assays were performed in GP-2.3 cells with the two tracer ^125I-radioligands shown; values are half-maximal inhibitory concentration (pIC50) and corresponding nanomolar value (below) derived from curve fitting ligand dose-response data. Data are means of four experiments.
(Displacement assays read how much labelled ligand stays bound in the presence of the test substance.)

Assay [1] addresses T2, wild-type PTHR (Mus musculus, UniProt P41593).
T2 construct: Wild-type mice were injected with a PTH agonist analog; from tissue; host or cells: whole animal, wild-type mice (C57BL/6J per methods)
T2 sequence (P41593 27-591): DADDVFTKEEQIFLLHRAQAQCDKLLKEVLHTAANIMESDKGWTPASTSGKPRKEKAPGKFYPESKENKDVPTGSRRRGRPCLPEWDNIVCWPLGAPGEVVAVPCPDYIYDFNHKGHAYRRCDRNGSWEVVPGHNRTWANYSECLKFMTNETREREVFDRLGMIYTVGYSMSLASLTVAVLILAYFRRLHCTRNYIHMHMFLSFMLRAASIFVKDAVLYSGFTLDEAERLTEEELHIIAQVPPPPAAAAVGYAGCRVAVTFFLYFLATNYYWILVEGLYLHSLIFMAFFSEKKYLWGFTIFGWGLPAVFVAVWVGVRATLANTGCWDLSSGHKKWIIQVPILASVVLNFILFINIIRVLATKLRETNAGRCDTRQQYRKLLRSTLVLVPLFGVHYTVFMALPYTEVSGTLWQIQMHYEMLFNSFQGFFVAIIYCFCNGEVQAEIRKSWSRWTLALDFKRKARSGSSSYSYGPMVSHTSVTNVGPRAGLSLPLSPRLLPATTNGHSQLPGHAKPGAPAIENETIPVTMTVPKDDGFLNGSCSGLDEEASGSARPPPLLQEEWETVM
Put plainly: Mouse transient model of hyperparathyroidism (PEG-PTH(1-35)-induced hypercalcemia), blood Ca2+. It counts as in vivo. The settings on record: 10-week old female CD1 mice; PEG-PTH(1-35)-1925 50 nmol/kg i.v. at −24 h; peptide 500 nmol/kg at 0 h; P<0.05 vs vehicle at 2 h. On the procedure:
(§1) Mice were injected IV via the tail vein or subcutaneously with ligands in vehicle (0.05% Tween80; 10 mM citrate; 150 mM NaCl; pH 5.0) to give the intended final ligand dose (e.g. 50 nmol/kg body weight). At times immediately before (t=0) and after injection, tail vein blood was collected and analyzed for blood ionized calcium (Ca^2+) measured with a RAPIDLAB 348 analyzer (SIEMENS Healthcare Diagnostic, United Kingdom).
To study antagonism at the wild-type PTHR under conditions of excess PTH, as occurs in humans with hyperparathyroidism, we developed a mouse non-genetic, transient model of hyperparathyroidism. Wild-type mice were injected with a PTH agonist analog, PEG-PTH(1-35), which induces hypercalcemia lasting between 24 and 72 hours after a single s.c. injection (see Guo et al., Journal of Bone and Mineral Research, 32:86-98, 2017). Antagonists were injected after 24 hours following the injection of PEG-PTH(1-35) and effects on blood Ca^2+ levels were measured. The results are illustrated in FIGS. 12A and 12B.

For assay [2], the target named is T2, wild-type PTHR. Put plainly: Mouse model of hypercalcemia of malignancy (co-injection with PTHrP(1-36)), blood Ca2+. It counts as in vivo. To be noted: 10-week old female CD1 mice; i.v. co-injection with PTHrP(1-36)-1880 10 nmol/kg; peptide 500 nmol/kg. On the procedure: as §1
To study antagonism at the wild-type PTHR under conditions of excess PTHrP, as occurs in humans with hypercalcemia of malignancy, we co-injected wild-type mice with PTHrP(1-36) and a test antagonist and measured effects on blood Ca^2+ levels. The results are illustrated in FIG. 13.

Read-outs that look alike come from different tables or passages of the source. Where a SMILES comes first, the peptide text is derived from it. [ ]: non-standard residue; d: D form.

For the compound `CC[C@H](C)[C@H](N)C(=O)N[C@@H](CCC(N)=O)C(=O)N[C@@H](CC(C)C)C(=O)N[C@@H](CCSC)C(=O)N[C@@H](Cc1c[nH]cn1)C(=O)N[C@@H](CCC(N)=O)C(=O)N[C@@H](CCCNC(=N)N)C(=O)N[C@H](Cc1c[nH]c2ccccc12)C(=O)N[C@@H](CCCCN)C(=O)N[C@@H](Cc1c[nH]c2ccccc12)C(=O)N[C@H](C(=O)N[C@@H](CCC(N)=O)C(=O)N[C@@H](CC(=O)O)C(=O)N[C@@H](C)C(=O)N[C@@H](CCCNC(=N)N)C(=O)N[C@@H](CCCNC(=N)N)C(=O)N[C@@H](CCCNC(=N)N)C(=O)N[C@@H](C)C(=O)N[C@@H](Cc1c[nH]c2ccccc12)C(=O)N[C@@H](CC(C)C)C(=O)N[C@@H](Cc1c[nH]cn1)C(=O)N[C@@H](CCCCN)C(=O)N[C@@H](CC(C)C)C(=O)N[C@H](C(=O)N[C@@H](C)C(=O)N[C@@H](CCC(=O)O)C(=O)N[C@H](C(=O)N[C@@H](Cc1c[nH]cn1)C(=O)N[C@H](C(=O)N[C@@H](C)C(=O)N[C@@H](CCC(=O)O)C(=O)N[C@H](C(N)=O)[C@@H](C)CC)[C@@H](C)O)[C@@H](C)CC)[C@@H](C)CC)[C@@H](C)CC` [compound 1949, dW12, W23-LA-PTH(5-36)] (H-IQLMHQR[dW]KWIQDARRRAWLHKLIAEIHTAEI-NH2; N-terminus assumed), the “apparent PTHR1 affinity compared with dTrp^12-PTH(7-34)-1894” value at PTHR1 (hPTHR1) (radioligand competition) is listed as “at least as strong”. The IC50 at PTHR1 (hPTHR1) (tracer ^125I-PTH(1-34), read-out: half-maximal inhibitory concentration, corresponding nanomolar value, tracer ^125I-PTH(1-34)) turned out to be 22.3 nM; at PTHR1 (hPTHR1) (tracer ^125I-PTHrP(5-36), read-out: half-maximal inhibitory concentration, corresponding nanomolar value, tracer ^125I-PTHrP(5-36)) it was 17.7 nM. The “effect on blood Ca^2+ (FIG. 12A)” value on wild-type PTHR [1] is “reduced blood Ca^2+”. Also, at wild-type PTHR [2], the “effect on blood Ca^2+ levels (FIG. 13)” value is “significant reduction of blood Ca^2+ levels”.
